Results published in article PMC3515450, “Mechanistic and Structural Understanding of Uncompetitive Inhibitors of Caspase-6” (PLoS ONE, 2012).

Columns and labels:
[1] = molecular target: T1, caspase-3 (Homo sapiens, UniProt P42574); assay: Caspase-3 enzymatic assay with divalent R110 substrates; type: biochemical
T1 construct: as the catalytic domain consisting of large p20 and small p10 subunits without prodomain; made in house
T1 sequence (P42574 29-175 limits assumed): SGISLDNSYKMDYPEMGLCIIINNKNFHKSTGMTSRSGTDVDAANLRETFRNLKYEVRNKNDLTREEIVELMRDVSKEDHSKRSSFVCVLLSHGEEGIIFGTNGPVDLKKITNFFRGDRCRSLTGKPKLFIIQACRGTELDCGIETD
T1 sequence (P42574 176-277 limits assumed): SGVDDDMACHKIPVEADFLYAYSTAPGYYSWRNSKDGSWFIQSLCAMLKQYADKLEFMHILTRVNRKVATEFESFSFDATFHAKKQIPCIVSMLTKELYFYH
Method: The in vitro enzymatic caspase assays utilize synthetic tetrapeptide substrates labeled with the fluorophores Rhodamine110 (R110) or 7-amino-4-methylcoumarin (AMC) at the P1 aspartic acid (Asp) residue. All assays were performed in 384-well plates in 12 µL reaction volume consisting of enzyme, substrate and indicated concentration of inhibitor or DMSO in assay buffer (50 mM HEPES [pH 7.0], 25 mM MgSO4, 0.5 mM EGTA, 5 mM Glutathione (GSH), 0.01% Triton X-100 containing 0.1% Bovine Gamma Globulin (BGG)). All inhibitors were serially diluted in 100% DMSO prior to dilution in assay buffer and transfer to assay plate. DMSO was diluted into assay buffer similarly for blank wells (no enzyme or compound) and final DMSO concentration was 1%. The concentration of caspase-6 used in enzymatic reactions typically varied between 1–10 nM depending on substrate used. Unless otherwise indicated, substrate concentration was within 3-fold of the determined Kmapparent (5 µM (Ac-VEID)2R110 [Kmapp = 8 µM]; 5 µM (Ac-DEVD)2R110 [Kmapp = 8 µM]; 25 µM (Ac-IETD)2R110 [Kmapp = 70 µM]; 25 µM (Ac-WEHD)2R110 [Kmapp = 70 µM]; 10µM Ac-VEID-AMC [Kmapp = 16µM]; 5 µM Ac-VEID-R110 [Kmapp = 8 µM]). The concentration of substrate utilized in selectivity assays for each caspase isoform was also held as close to Kmapparent as reasonably achievable (Table S1). Caspases-3 and -7 were expressed and purified at Genentech as the catalytic domain consisting of large p20 and small p10 subunits without prodomain. For all caspase enzymatic assays, the reaction plate was incubated at room temperature for 40 minutes and then read on Envision (Perkin Elmer) fluorescent plate reader at excitation/emission wavelengths of 485/535 nm (R110) or 350/450 nm (AMC).
The endpoint fluorescent emission (RFU) in each well was plotted as a function of inhibitor concentration and the 50% inhibition (IC50) values were determined using a nonlinear least squares fit of the data to a four parameter equation using Prism 5.0 software (GraphPad Software, San Diego, CA). […]

[2] = molecular target: T2, covalent VEID/caspase-6 complex (Homo sapiens, UniProt P55212); assay: SPR binding to VEID-FMK-blocked caspase-6; details: covalent VEID/caspase-6 (acyl enzyme) complex, 1:1 binding
T2 construct: Residues 24-179 and 194-293 from caspase-6 cDNA (Origene) were cloned into pET-24b and pET-23b vectors; 6x histidine tag; made in house; host or cells: E. coli (as above), BirA co-expressed
T2 sequence (P55212 24-179): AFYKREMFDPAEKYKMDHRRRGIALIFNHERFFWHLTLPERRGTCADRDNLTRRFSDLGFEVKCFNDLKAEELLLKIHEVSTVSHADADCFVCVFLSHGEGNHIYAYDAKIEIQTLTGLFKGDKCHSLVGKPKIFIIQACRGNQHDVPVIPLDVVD
T2 sequence (P55212 194-293): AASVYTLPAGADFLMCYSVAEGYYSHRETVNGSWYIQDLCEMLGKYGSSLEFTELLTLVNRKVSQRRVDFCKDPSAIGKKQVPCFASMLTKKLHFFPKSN
Method: For SPR experiments, caspase-6 was cloned to include a C-terminal avi-tag (Avidity) and expressed and purified as above, except that biotin ligase (BirA) was co-expressed during fermentation. […] Avi-tagged zymogen C163A-caspase-6 was processed to mature C163A-caspase-6 by the addition of active caspase-3 and caspase-6. Chip preparation for neutravidin-based capture was performed as previously described using either a Biacore T100 or Biacore 3000 instrument (GE Healthcare). Running buffer was 50 mM HEPES pH 7.2, 100 mM MgSO4, 30 mM NaCl, 1 mM TCEP, 0.01% Triton X-100, 1% PEG-3350, 2.5% DMSO, and the instrument was set for 20 degrees C. After capture one flow cell of apo-caspase-6 was exposed to a continuous flow of 20 µM VEID-FMK. A rise in signal could be detected for the binding/reacting of the VEID-FMK and exposure was continued until no additional rise in response was observed (∼45 minutes) indicating full saturation of all binding sites. There was no observed decrease in signal upon washing, indicating the reaction was irreversible. […] Fluorescent substrates were too limiting in solubility and quantity to be added to the running buffer, so substrates were mixed at a concentration equal to their Kmapp with 3 and injected together over the indicated surfaces. […]

IC50 ([1]; caspase-3, (DEVD)2R110 substrate): > 100 µM
IC50 ([1]; caspase-3, (VEID)2R110 substrate): > 100 µM
Kd [2]: 1300 nM
SMILES: COc1ccc(-c2cc(C(=O)N[C@@H](CO)Cc3cccc(C#N)c3)co2)cc1OC [Compound 3]
